The record followed here is patent US10780094B2, “Use of carbonic anhydrase inhibitors for treatment of neurological and psychiatric disorders” (New York University, priority 2016, dated 2020).

The test system of data set [1] is TgSwDI mice. The format is in vivo. To be noted: given with diet. Here is the method:
The grip strength test was used to measure neuromuscular function and specifically assesses maximal muscle/grip force of the forelimbs (only) or both the fore and hind limbs combined. Motor performance was assessed by the horizontal grasping force applied by the rodent to a specialized stainless steel grid that is connected to a sensitive, electronic force sensor (Bioseb In Vivo Research Instruments). […] With the base of the tail held gently but firmly between thumb and forefinger, the mouse was pulled gently back away from the grid, ensuring that the torso remains horizontal, until the animal loses grip of the grid. For combined fore and hindlimb measurement, the procedure was identical to the forelimb-only procedure except that mouse was lowered to allow both fore and hind paws to attach to the grid before any measurements were taken. […]
To ensure maximal reliability, each measurement of interest (e.g., forelimb or combined) was repeated consecutively for each mouse to obtain 5-6 replicates. […] A truncated mean (mean of replicates after the smallest and largest readings were removed) was calculated for each subject. […]
Mice in each treatment group (WT, Tg, Tg+MTZ, Tg+ATZ) were counted before the beginning of the treatment, at month 2, and at sacrifice (month 16). […]

Data set [2] relates to TgSwDI mice. In words: Contextual fear conditioning. The format is in vivo, mouse. To be noted: short-term treatment (3 months).
A further data set deals with D3 cells. Briefly: Mitochondrial and cytoplasmic calcium assay (Rhod-2 AM, Fluo-4 AM). The data set is classed as cell-based, human. To be noted: highest doses; 45 minutes. Here is the method: This assay was performed as published in [60]. Briefly, cells were plated on 25 mm optical borosilicate poly-L-lysine-coated sterile glass covers, (ThermoFisher, Waltham, Mass., US) at a 70% confluence. 24 hours later, cells were loaded with 5 μM Rhod-2 AM or 2.5 μM Fluo-4 AM on HBSS for 45 minutes. Then, cells were washed twice with HBSS and incubated for another additional 15 minutes on fresh HBSS, without Rhod-2 AM or Fluo-4 AM. After that, HBSS was replaced again by fresh HBSS, glasses were mounted on microscopy chambers and experiments were conducted, after adding the pre-aggregated peptides and/or the drugs. Cells were mounted on Sykes-Moores chambers (BellCo, Vineland, N.J., US) and imaged every 15 seconds for 45 min, at a 20× magnification, using a Nikon fluorescent microscope (Chiyoda, Tokyo, Japan). Images were processed using NIS-Elements and ImageJ software. Due to the rapidity of this experiment, the peptide was pre-aggregated as described above to obtain oligomers before being added to the cells.

Data set [3] has as its system TgSwDI mice. Briefly: Barnes Maze spatial memory testing. The data set is classed as in vivo, mouse. To be noted: for behavioral phenotypes (Barnes maze): given with diet; for distance traveled, probe trial / mistakes, probe trial: in the diet for 8 months, 15-20 mg/kg/day; for distance traveled, probe trial / mistakes, probe trial / distance traveled in trial 10 (last trial): tested at 15-16 months; for distance traveled in trial 10 (last trial): treated for 8 months. The text has this:
The Barnes Maze was used to provide an index of spatial learning and memory. The task capitalizes on the motivation of mice to seek refuge from loud, open and brightly-lit spaces. Mice were trained across a series of trials to successfully navigate to a hidden escape chamber using information provided by distal spatial cues. The Barnes Maze consists of a relatively large (36″ in diameter), circular platform with a beige textured surface that is elevated 36″ from the floor (San Diego Instruments, San Diego USA). The platform has twenty 2″ diameter holes that are equally spaced around the periphery of the platform (1″ from the edge). A grey plastic escape box (˜10 cm×8.5 cm×4 cm) is located under only one of the holes, the location of which is constant for each subject but variable across subjects and counterbalanced across groups. The surface of the Barnes maze is brightly-lit (500-600 lux), illuminated by an overhead lamp (60-100 W) placed approximated 30″ above the center of the platform. Visible distal cues were placed around the room and remained constant throughout the testing period. An overhead video camera and specialized software (Noldus Ethovision 11.5) was used to track the locomotor trajectories of the mice. Mice were trained for six consecutive daily testing sessions (2 trials/day for 5 days, and probe test on day 6).
On each testing day, mice were brought to the testing room for a minimum of 30 mins prior to testing in order to acclimate to transport and testing room conditions. On the first day of testing, each mouse was gently removed from its home cage by the base of its tail and placed in the center of the platform and kept within an inverted 500 ml beaker for 1 min. A white noise generator (San Diego Instruments) was turned on (˜90-100 dB) when the mouse was placed onto the maze. After the 1-min period, the beaker was slowly moved (over the course of 1 min) to the target hole with the mouse freely moving but confined underneath. Care was taken not to catch the tail or paws of the mouse while moving the beaker. The mouse was then permitted, or was gently guided by the experimenter using the beaker, to enter the escape box and was given 2 min inside before being transported back to its home cage within the escape box. The white noise was turned off as soon as the mouse entered the escape box. The platform and start box were cleaned thoroughly with 30% ethanol and allowed to dry fully before each trial. To ensure that distal spatial cues rather than local intramaze cues were being used to help guide navigation to the escape box, the maze was rotated after each training trial and the escape box re-positioned to always be in the identical spatial location within the room.
After the initial beaker trial, each mouse was given 2 training trials per day. During training trials, mice were placed in the center of the platform within an plastic 6″l×6″w×8″h start box. The white noise generator was turned on and, after 10-15 s delay, the start box was lifted. The mouse was permitted a maximum of 3 min to find the designated hole and escape box. When a mouse entered the escape box the white noise was turned off and they were given approximately 1 additional min inside the box before being transferred back to the home cage. […] A 90-120 min inter-trial interval separated the two training trials on each daily session.
Twenty four hours after (Day 6) the fifth training session, a 3-min probe trial was given, conducted identically as the training trials but where the escape box had been removed. This probe was used to examine search behavior patterns and to help control for possible strategies that use local cues from the escape box.
Spatial learning and memory was inferred based on the latency, distance and number of errors (other holes visited) that was required for the mouse to successfully navigate to the escape box. […]

Another data set deals with caspase 9 in D3 cells. Briefly: Caspase-Glo 9 activity after Aβ challenge. To be noted: Example 2/3; FIG. 16D, 22. The format is cell-based, human. Here is the method:
Cells were plated at a confluence of 10.000 cells per well in 96-wells microplate luminescence microtiter (ThermoFisher, Waltham, Mass., US). The day after, cells were treated with the peptides and/or drugs for the experimental times. After that, caspase-Glo 9 assay was performed, following the protocol provided from the manufacturer. Luminescence was measured using a FlexStation 3 Multi-Mode Microplate Reader (Molecular devices, Sunnyvalem Calif., US).

For the compound `CC(=O)Nc1nnc(S(N)(=O)=O)s1` [ATZ, acetazolamide], in the data set on TgSwDI mice [1], the “signs of toxicity, weight loss or death” value is “without showing signs of toxicity, weight loss or increased death of the animals”. Further, the “increase of freezing in contextual fear conditioning” value in the data set on TgSwDI mice [2] is listed as “normalizing effect”. In the data set on D3 cells, the “Aβ-induced decrease in mitochondrial and cytoplasmic Ca2+” value is “counteract the effect exerted by the peptide”. Also, in the data set on TgSwDI mice [3], the “behavioral phenotypes (Barnes maze)” value is “ameliorate behavioral phenotypes”; the “distance traveled, probe trial” value was “not significantly higher than WT mice”; the “mistakes, probe trial” value is given as “not significantly higher than WT mice”; the “distance traveled in trial 10 (last trial)” value is on record as “not significantly higher than WT mice”. The “caspase 9 activation” value in the data set with caspase 9 in D3 cells was “protective effect”.
Turning to `CC(=O)/N=c1/sc(S(N)(=O)=O)nn1C` [MTZ, methazolamide], the “signs of toxicity, weight loss or death” value in the data set with TgSwDI mice [1] is reported as “without showing signs of toxicity, weight loss or increased death of the animals”. Moreover, the “increase of freezing in contextual fear conditioning” value in the data set with TgSwDI mice [2] is “normalizing effect”. In addition, the “Aβ-induced decrease in mitochondrial and cytoplasmic Ca2+” value in the data set with D3 cells is “counteract the effect exerted by the peptide”. Further, in the data set with TgSwDI mice [3], the “behavioral phenotypes (Barnes maze)” value is “ameliorate behavioral phenotypes”; the “distance traveled, probe trial” value is reported as “not significantly higher than WT mice”; the “mistakes, probe trial” value was “not significantly higher than WT mice”; the “distance traveled in trial 10 (last trial)” value is reported as “not significantly higher than WT mice”. The “caspase 9 activation” value with caspase 9 in D3 cells is “protective effect”.
